The test addresses T1, human neutrophil elastase (HNE) (Homo sapiens, UniProt P08246).
T1 construct: purchased Sigma E8140
T1 sequence (P08246 30-247 limits assumed): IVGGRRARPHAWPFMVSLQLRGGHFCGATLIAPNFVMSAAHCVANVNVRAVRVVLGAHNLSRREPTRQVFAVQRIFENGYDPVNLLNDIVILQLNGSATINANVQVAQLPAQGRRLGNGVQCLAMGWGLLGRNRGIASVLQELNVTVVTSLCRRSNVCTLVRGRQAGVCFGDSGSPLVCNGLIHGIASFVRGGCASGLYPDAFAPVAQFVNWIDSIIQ
In words: HNE enzyme assay (human neutrophil elastase enzyme activity assay). Type of test: biochemical. The conditions noted are these: human leukocyte elastase 0.00072 U/mL; substrate MeOSuc-Ala-Ala-Pro-Val-AMC 100 μM; 25° C. for 30 minutes; at least two separate experiments; read-out: HNE inhibition (HNE enzyme inhibition, IC50 values). In a few lines: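 Human leukocyte elastase (0.00072 U/mL) with 100 μM MeOSuc-AAPV-AMC in Tris/NaCl/CaCl2/Brij-35 buffer, pH 7.5, 1% DMSO, 30 min at 25 °C; stopped with soybean trypsin inhibitor. AMC fluorescence (380/460 nm) as % inhibition of control; IC50 from dose-response curves, ≥2 experiments.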
Regarding `CN(CC1CC[N+](C)(C)CC1)C(=O)C(C)(C)NC(=O)c1c(-c2ccnn2-c2ccc(C#N)cc2)n(C)n(-c2cccc(C(F)(F)F)c2)c1=O` [Example 40, 4-{[(2-{[2′-(4-Cyano-phenyl)-2-methyl-5-oxo-1-(3-trifluoromethyl-phenyl)-2,5-dihydro-1H,2′H-[3,3′]bipyrazolyl-4-carbonyl]-amino}-2-methyl-propionyl)-methyl-amino]-methyl}-1,1-dimethyl-piperidinium benzene sulphonate], the IC50 is < 1 nM.

`C[C@H](NC(=O)c1c(-c2ccnn2-c2ccc(C#N)cc2)n(C)n(-c2cccc(C(F)(F)F)c2)c1=O)C(=O)N1CC[N+](C)(Cc2ccccc2)CC1` [Example 27, 1-Benzyl-4-((S)-2-{[2′-(4-cyano-phenyl)-2-methyl-5-oxo-1-(3-trifluoromethyl-phenyl)-2,5-dihydro-1H,2′H-[3,3′]bipyrazolyl-4-carbonyl]-amino}-propionyl)-1-methyl-piperazin-1-ium bromide]: the IC50 was < 1 nM.

On to `C[C@H](NC(=O)c1c(-c2ccnn2-c2ccc(C#N)cc2)n(C)n(-c2cccc(C(F)(F)F)c2)c1=O)c1cc[n+](C)cc1` [Example 19, 4-((S)-1-{[2′-(4-Cyano-phenyl)-2-methyl-5-oxo-1-(3-trifluoromethyl-phenyl)-2,5-dihydro-1H,2′H-[3,3′]bipyrazolyl-4-carbonyl]-amino}-ethyl)-1-methyl-pyridinium benzene sulphonate], for which the half-maximal inhibitory concentration (IC50) was < 1 nM.

Consider `Cn1c(-c2ccnn2-c2ccc(C#N)cc2)c(C(=O)N[C@H]2CC[C@H](C(=O)N3CCC([N+](C)(C)C)CC3)CC2)c(=O)n1-c1cccc(C(F)(F)F)c1` [Example 60, [1-(4-{[2′-(4-Cyano-phenyl)-2-methyl-5-oxo-1-(3-trifluoromethyl-phenyl)-2,5-dihydro-1H,2′H-[3,3′]bipyrazolyl-4-carbonyl]-amino}-cyclohexanecarbonyl)-piperidin-4-yl]-trimethyl-ammonium benzene sulphonate], for which the 50% inhibitory concentration (IC50) is < 1 nM.

As to `CN(C)CC(=O)O[C@H]1CC[C@H](NC(=O)c2c(-c3ccnn3-c3ccc(C#N)cc3)n(C)n(-c3cccc(C(F)(F)F)c3)c2=O)CC1` [Example 16, Dimethylamino-acetic acid trans-4-{[2′-(4-cyano-phenyl)-2-methyl-5-oxo-1-(3-trifluoromethyl-phenyl)-2,5-dihydro-1H,2′H-[3,3′]bipyrazolyl-4-carbonyl]-amino}-cyclohexyl ester], the half-inhibitory concentration (IC50) is < 1 nM.

In the case of `CC(C)[C@H](NC(=O)c1c(-c2ccnn2-c2ccc(C#N)cc2)n(C)n(-c2cccc(C(F)(F)F)c2)c1=O)c1ncc(C[N+](C)(C)C)o1` [Example 53, [2-((S)-1-{[2′-(4-Cyano-phenyl)-2-methyl-5-oxo-1-(3-trifluoromethyl-phenyl)-2,5-dihydro-1H,2′H-[3,3′]bipyrazolyl-4-carbonyl]-amino}-2-methyl-propyl)-oxazol-5-ylmethyl]-trimethyl-ammonium benzene sulphonate], the half-inhibitory concentration (IC50) was < 1 nM.

In the case of `C[C@H](NC(=O)c1c(-c2ccnn2-c2ccc(C#N)cc2)n(C)n(-c2cccc(C(F)(F)F)c2)c1=O)c1nnc(CN(C)C)o1` [Example 8, 2′-(4-Cyano-phenyl)-2-methyl-5-oxo-1-(3-trifluoromethyl-phenyl)-2,5-dihydro-1H,2′H-[3,3′]bipyrazolyl-4-carboxylic acid [(S)-1-(5-dimethylaminomethyl-[1,3,4]oxadiazol-2-yl)-ethyl]-amide], the half-inhibitory concentration (IC50) was < 1 nM.

For `CN(CC[N+](C)(C)C)C(=O)C1(NC(=O)c2c(-c3ccnn3-c3ccc(C#N)cc3)n(C)n(-c3cccc(C(F)(F)F)c3)c2=O)CCCC1` [Example 61, {2-[(1-{[2′-(4-Cyano-phenyl)-2-methyl-5-oxo-1-(3-trifluoromethyl-phenyl)-2,5-dihydro-1H,2′H-[3,3′]bipyrazolyl-4-carbonyl]-amino}-cyclopentanecarbonyl)-methyl-amino]-ethyl}-trimethyl-ammonium benzene sulphonate], the half-maximal inhibitory concentration (IC50) was < 1 nM.

As to `Cn1c(-c2ccnn2-c2ccc(C#N)cc2)c(C(=O)NC2CCN(C(=O)CC[N+](C)(C)C)CC2)c(=O)n1-c1cccc(C(F)(F)F)c1` [Example 63, 3-(4-{[2′-(4-Cyano-phenyl)-2-methyl-5-oxo-1-(3-trifluoromethyl-phenyl)-2,5-dihydro-1H,2′H-[3,3′]bipyrazolyl-4-carbonyl]-amino}-piperidin-1-yl)-3-oxo-propyl]-trimethyl-ammonium benzene sulphonate], the IC50 was < 1 nM.

Turning to `C[C@H](NC(=O)c1c(-c2ccnn2-c2ccc(C#N)cc2)n(C)n(-c2cccc(C(F)(F)F)c2)c1=O)C(=O)N1CCC([N+](C)(C)C)CC1` [Example 41, [1-((S)-2-{[2′-(4-Cyano-phenyl)-2-methyl-5-oxo-1-(3-trifluoromethyl-phenyl)-2,5-dihydro-1H,2′H-[3,3′]bipyrazolyl-4-carbonyl]-amino}-propionyl)-piperidin-4-yl]-trimethyl-ammonium benzene sulphonate], the IC50 is < 1 nM.

`Cn1c(-c2ccnn2-c2ccc(C#N)cc2)c(C(=O)N[C@H]2CC[C@H](NC(=O)C[N+](C)(C)C)CC2)c(=O)n1-c1cccc(C(F)(F)F)c1` [Example 45, [(Trans-4-{[2′-(4-cyano-phenyl)-2-methyl-5-oxo-1-(3-trifluoromethyl-phenyl)-2,5-dihydro-1H,2′H-[3,3′]bipyrazolyl-4-carbonyl]-amino}-cyclohexylcarbamoyl)-methyl]-trimethyl-ammonium benzene sulphonate]: the IC50 was < 1 nM.

With `Cn1c(-c2ccnn2-c2ccc(C#N)cc2)c(C(=O)NC2CCN(C(=O)C[N+](C)(C)Cc3ccccc3)CC2)c(=O)n1-c1cccc(C(F)(F)F)c1` [Example 43, Benzyl-[2-(4-{[2′-(4-cyano-phenyl)-2-methyl-5-oxo-1-(3-trifluoromethyl-phenyl)-2,5-dihydro-1H,2′H-[3,3′]bipyrazolyl-4-carbonyl]-amino}-piperidin-1-yl)-2-oxo-ethyl]-dimethyl-ammonium bromide], the half-inhibitory concentration (IC50) is < 1 nM.

In the case of `Cn1c(-c2ccnn2-c2ccc(C#N)cc2)c(C(=O)NC2CC[N+]3(CCCC3)CC2)c(=O)n1-c1cccc(C(F)(F)F)c1` [Example 22, 8-{[2′-(4-Cyano-phenyl)-2-methyl-5-oxo-1-(3-trifluoromethyl-phenyl)-2,5-dihydro-1H,2′H-[3,3′]bipyrazolyl-4-carbonyl]-amino}-5-azonia-spiro[4.5]decane bromide], the IC50 was < 1 nM.

With `Cn1c(-c2ccnn2-c2ccc(C#N)cc2)c(C(=O)NC[C@H]2CC[C@H]([N+](C)(C)C)CC2)c(=O)n1-c1cccc(C(F)(F)F)c1` [Example 29, [Trans-4-({[2′-(4-cyano-phenyl)-2-methyl-5-oxo-1-(3-trifluoromethyl-phenyl)-2,5-dihydro-1H,2′H-[3,3′]bipyrazolyl-4-carbonyl]-amino}-methyl)-cyclohexyl]-trimethyl-ammonium benzene sulphonate], the half-maximal inhibitory concentration (IC50) fell in the range of 1 to 10 nM.

On to `Cn1c(-c2ccnn2-c2ccc(C#N)cc2)c(C(=O)N[C@H]2CC[C@H](C(=O)OCC[N+](C)(C)C)CC2)c(=O)n1-c1cccc(C(F)(F)F)c1` [Example 65, [2-(Trans-4-{[2′-(4-cyano-phenyl)-2-methyl-5-oxo-1-(3-trifluoromethyl-phenyl)-2,5-dihydro-1H,2′H-[3,3′]bipyrazolyl-4-carbonyl]-amino}-cyclohexanecarbonyloxy)-ethyl]-trimethyl-ammonium benzene sulphonate], for which the IC50 is < 1 nM.

In the case of `C[C@H](NC(=O)c1c(-c2ccnn2-c2ccc(C#N)cc2)n(C)n(-c2cccc(C(F)(F)F)c2)c1=O)c1ncc(C[N+](C)(C)Cc2ccccc2)o1` [Example 31, Benzyl-[2-((S)-1-{[2′-(4-cyano-phenyl)-2-methyl-5-oxo-1-(3-trifluoromethyl-phenyl)-2,5-dihydro-1H,2′H-[3,3′]bipyrazolyl-4-carbonyl]-amino}-ethyl)-oxazol-5-ylmethyl]-dimethyl-ammonium bromide], the IC50 was < 1 nM.

Consider `CN1CCC(NC(=O)[C@H]2CC[C@H](NC(=O)c3c(-c4ccnn4-c4ccc(C#N)cc4)n(C)n(-c4cccc(C(F)(F)F)c4)c3=O)CC2)CC1` [Example 12, 2′-(Trans-4-cyano-phenyl)-2-methyl-5-oxo-1-(3-trifluoromethyl-phenyl)-2,5-dihydro-1H,2′H-[3,3′]bipyrazolyl-4-carboxylic acid [4-(1-methyl-piperidin-4-ylcarbamoyl)-cyclohexyl]-amide], for which the IC50 was < 1 nM.

Take `C[C@H](NC(=O)c1c(-c2ccnn2-c2ccc(C#N)cc2)n(C)n(-c2cccc(C(F)(F)F)c2)c1=O)C(=O)N1CCC([N+](C)(C)Cc2ccccc2)CC1` [Example 35, Benzyl-[1-((S)-2-{[2′-(4-cyano-phenyl)-2-methyl-5-oxo-1-(3-trifluoromethyl-phenyl)-2,5-dihydro-1H,2′H-[3,3′]bipyrazolyl-4-carbonyl]-amino}-propionyl)-piperidin-4-yl]-dimethyl-ammonium bromide]: the IC50 is < 1 nM.

In the case of `CCOC(=O)c1c(-c2ccnn2-c2ccc(C#N)cc2)n(C)n(-c2cccc(C(F)(F)F)c2)c1=O` [Example 1, 2′-(4-Cyano-phenyl)-2-methyl-5-oxo-1-(3-trifluoromethyl-phenyl)-2,5-dihydro-1H,2′H-[3,3′]bipyrazolyl-4-carboxylic acid ethyl ester], the IC50 was < 1 nM.

One may read the IC50 as the midpoint of a concentration-inhibition curve.

Source of the values: US10172830B2, “Pyrazolone compounds having human neutrophil elastase inhibitory properties” (CHIESI FARMACEUTICI S.P.A., priority 2016, dated 2019).
